Values joined by “and” are separate entries in the source; they are usually repeats but may differ in a detail not shown here. Equal entries are not always repeated. Where two headings read alike, the source gives them in different places.
Key:
LDL-C = details: cited from earlier work
[1] = test system: Lipoprotein, lipid and apolipoprotein concentrations; assay: Phase 2 placebo-controlled study of obicetrapib as adjunct to high-intensity statin therapy: lipid efficacy; assay type: in vivo, human; details: for Apo A1, week 8 change, LS Mean ± SE / Apo B, week 8 change, LS Mean ± SE / HDL-C, week 8 change, LS Mean ± SE / LDL-C (Martin-Hopkins), week 8 change, LS Mean ± SE / Lp(a), week 8 change, LS Mean ± SE / Non-HDL-C, week 8 change, LS Mean ± SE / TG, week 8 change, LS Mean ± SE / VLDL-C, week 8 change, LS Mean ± SE / LDL-C by Friedewald, % change from baseline, LS mean: MMRM; for LDL-C (PUC), week 8 change, LS Mean ± SE (Table 9): analysis of covariance model; for LDL-C (Friedewald formula) reduced from baseline by: primary analysis; for LDL-C (Friedewald formula) reduced from baseline by / Apo B reduced by / Lp(a) reduced by / non-HDL-C reduced by: stated as reduction; for ApoB, % change from baseline, median / HDL-C, % change from baseline, median / LDL-C by Friedewald, % change from baseline (median) / LDL-C by PUC, % change from baseline (median) / Non-HDL-C, % change (median) from baseline / LDL-C by Friedewald, % change from baseline, LS mean: week 8, on top of high-intensity statin
Procedure: The study consisted of three arms: 1) 5 mg obicetrapib as adjunctive therapy; 2) 10 mg obicetrapib as adjunctive therapy and 3) a placebo arm. The second objective was to evaluate other lipoprotein lipid and apolipoprotein responses, safety and tolerability profiles, and plasma concentrations of obicetrapib during treatment and for several weeks of follow-up. Lastly, this study aimed to determine if different quantitative measures of LDL-C levels produced differences in the treatment effects of CETP inhibition.
This randomised, double-blind, placebo-controlled, parallel-group phase 2 trial was conducted in male and female patients (18-75 years), treated with high-intensity statin therapy, with LDL-C levels >70 mg/DL and TG levels <400 mg/dL. Key exclusion criteria were patients with BMI >40 kg/m; Significant cardiovascular disease; HbAc >10%; Uncontrolled hypertension; Active muscle disease; GFR <60 ml/min; Hepatic dysfunction; Anemia; History of malignancy; Alcohol abuse; Treatment with investigational product; Treatment with PCSK9 inhibitor; Clinically significant condition; and/or prior exposure to a CETP inhibitor. Patients were recruited at 19 sites in the United States. The trial was approved by Independent Ethics Committees, and each patient provided written informed consent. The trial was conducted in accordance with the principles of the Declaration of Helsinki and Good Clinical Practice Guidelines and the protocol was registered on ClinicalTrials.gov (NCT04753606).
The screening period for this study took up to 2-weeks. Afterwards patients were randomized to placebo, 5 mg obicetrapib or 10 mg obicetrapib for an 8-week treatment period. After the treatment period, patients continued for a 4-week safety follow-up and a 15-week PK follow-up.
Patients were randomly assigned to receive one of the three treatments investigative treatments. All treatments were to be taken once daily with food for 8 weeks. Safety was assessed throughout the trial by monitoring adverse events and concomitant medication use, 12-lead electrocardiograms (ECGs), vital signs, laboratory safety assessments and physical examinations. Additional assessments included salivary cortisol, plasma aldosterone, high-sensitivity C-reactive protein (hsCRP) and endothelin 1.
Efficacy assessments included fasted lipid profiles including total cholesterol (TC), HDL-C, LDL-C, triglycerides, apolipoprotein B (ApoB), and derived parameters.
Total cholesterol and triglycerides were measured by homogenous enzymatic assay using a Modular analyser (cholesterol oxidase peroxidase-peroxidase aminophenazone phenol [CHOP-PAP]) method and a glycerol phosphate oxidase [GPO-PAP] method, respectively. Apolipoprotein B was measured by immunoturbidimetry using reagents from Rolf Greiner Biochemica (Germany) and N apoprotein standard serum from Siemens (Germany). LDL particle size was determined by gradient gel electrophoresis. HDL fraction was separated by a combined ultracentrifugation-precipitation method (β-quantification). HDL-2 and HDL-3 fractions were then separated by further ultracentrifugation. Total-cholesterol in HDL, HDL 2 and HLD-3 fractions, free cholesterol in HDL fraction, triglycerides in HDL fraction and phospholipids in plasma and HDL-fraction were measured using enzymatic methods and reagents from Diasys Diagnostics (Germany). The measurements were performed on an Olympus AU600 automatic analyzer and were calibrated using secondary standards from Roche Diagnostics (total-cholesterol, triglycerides) and Diasys Diagnostics (free cholesterol, phospholipids), respectively. Esterified cholesterol was calculated as the difference between total-cholesterol and free cholesterol.
The primary outcome measure was LDL-C (percent change). Secondary outcome measures included ApoB, Non-HDL-C and HDL-C (percent change). The Intent-to-Treat (ITT) Population included all participants randomized into the study. […]

[2] = 5 mg once daily for 8 weeks on top of high-intensity statin
[3] = 5 mg once daily on top of high-intensity statin
[4] = 5 mg once daily on top of high-intensity statin, listed as obicetrapib
[5] = 5 mg once daily, 8 weeks, on top of high-intensity statin
[6] = 10 mg once daily for 8 weeks on top of high-intensity statin
[7] = 10 mg once daily on top of high-intensity statin
[8] = 10 mg once daily, 8 weeks, on top of high-intensity statin

## CCOC(=O)N1c2ccc(C(F)(F)F)cc2[C@@H](N(Cc2cc(C(F)(F)F)cc(C(F)(F)F)c2)c2ncc(OCCCC(=O)O)cn2)C[C@H]1CC [Obicetrapib, (2R,4S)-4-{[3,5-bis(trifluoromethyl)benzyl]-[5-(3-carboxypropoxy)pyrimidin-2-yl]amino}-2-ethyl-6-trifluoromethyl-3,4-dihydro-2H-quinoline-1-carboxylic acid ethyl ester]
LDL-C; 1 mg for 12 weeks, mild dyslipidemia
  LDL-C reduction: 27%
LDL-C; 2.5 mg for 12 weeks, mild dyslipidemia
  LDL-C reduction: 33%
LDL-C; 5 mg for 12 weeks, mild dyslipidemia
  LDL-C reduction: 45%
LDL-C; 10 mg for 12 weeks, mild dyslipidemia
  LDL-C reduction: 45%
LDL-C; 10 mg obicetrapib plus 10 mg rosuvastatin
  LDL-C reduction: 63%
LDL-C; 10 mg obicetrapib plus 20 mg atorvastatin
  LDL-C reduction: 68%
LDL-C; daily 10 mg with moderate-intensity statins (20 mg atorvastatin or 10 mg rosuvastatin), 12 weeks
  incremental LDL-C reduction compared with statin monotherapy: up to 50%
[1]; 5 mg and 10 mg add-on to high-intensity statin
  Time of treatment at which maximum LDL-C reductions were already present: ≤ 4 weeks
[1]; [2]
  ApoB, EoT median: 65.0 mg/dL
  ApoB, change from baseline, median: -22.0 mg/dL
  HDL-C, EoT median: 107.0 mg/dL
  HDL-C, change from baseline, median: 60.0 mg/dL
  LDL-C by Friedewald, EoT median: 51.0 mg/dL
  LDL-C by PUC, EoT median: 53.0 mg/dL
  Non-HDL-C, EoT median: 71 mg/dL
[1]; [3]
  Apo A1, week 8 change, median (min, max): 44.6% and 44.6 (−10.0, 87.1) %
  LDL-C (Martin-Hopkins), week 8 change, median (min, max): −42.5 (−80.8, 74.4) %
  Lp(a), week 8 change, median (min, max): −33.8 (−84.6, 93.8) %
  TG, week 8 change, median (min, max): −11.0 (−53.3, 86.7) %
  VLDL-C, week 8 change, median (min, max): −11.5 (−53.5, 83.3) %
  Apo A1, week 8 change, LS Mean ± SE: 41.1 ± 3.04%
  Apo B, week 8 change, LS Mean ± SE: −22.4 ± 2.58%
  HDL-C, week 8 change, LS Mean ± SE: 122 ± 6.59%
  LDL-C (Martin-Hopkins), week 8 change, LS Mean ± SE: −39.6 ± 3.68%
  Lp(a), week 8 change, LS Mean ± SE: −30.9 ± 4.43%
  Non-HDL-C, week 8 change, LS Mean ± SE: −34.4 ± 3.18%
  TG, week 8 change, LS Mean ± SE: −6.63 ± 5.32%
  VLDL-C, week 8 change, LS Mean ± SE: −6.02 ± 5.24%
  LDL-C (PUC), week 8 change, LS Mean ± SE (Table 9): −35.7 ± 3.31%
[1]; [4]
  LDL-C (Martin-Hopkins), week 8 change, median (min, max): 42.5%
  TG, week 8 change, median (min, max): −11.0%
  VLDL-C, week 8 change, median (min, max): −11.5%
[1]; [5]
  LDL-C by PUC, % change from baseline, LS mean (Table 3): −37.98%
  LDL-C (Friedewald formula) reduced from baseline by: 42.9%
  Apo B reduced by: 24.4%
  Lp(a) reduced by: 33.8%
  non-HDL-C reduced by: 38.9%
[1]; 5 mg once daily
  ApoB, % change from baseline, median: −24.40% and −24.4 (−58.5, 47.4) %
  HDL-C, % change from baseline, median: 135% and 135.4% and 135 (−26.4, 213) %
  LDL-C by Friedewald, % change from baseline (median): −42.90% and −42.9 (−81.9, 72.4) %
  LDL-C by PUC, % change from baseline (median): −41.5% and −41.45% and −41.5 (−71.2, 62.3) %
  Non-HDL-C, % change (median) from baseline: −38.9% and −38.9 (−65.6, 66.3) %
  LDL-C by Friedewald, % change from baseline, LS mean: −37.94% and −38.0 ± 3.49%
[1]; 5 mg once daily, listed as obicetrapib
  LDL-C by PUC, % change from baseline (median): −41.5%
[1]; [6]
  ApoB, EoT median: 58.5 mg/dL
  ApoB, change from baseline, median: -24.5 mg/dL
  HDL-C, EoT median: 117.5 mg/dL
  HDL-C, change from baseline, median: 72.0 mg/dL
  LDL-C by Friedewald, EoT median: 52.0 mg/dL
  LDL-C by PUC, EoT median: 49.5 mg/dL
  Non-HDL-C, EoT median: 69 mg/dL
[1]; [7]
  Apo A1, week 8 change, median (min, max): 47.8% and 47.8 (13.5, 106) %
  LDL-C (Martin-Hopkins), week 8 change, median (min, max): −49.2 (−77.0, 28.1) %
  Lp(a), week 8 change, median (min, max): −56.5 (−85.7, 18.3) %
  TG, week 8 change, median (min, max): −7.85 (−63.7, 129) %
  VLDL-C, week 8 change, median (min, max): −7.90 (−44.4, 125) %
  Apo A1, week 8 change, LS Mean ± SE: 52.3 ± 3.04%
  Apo B, week 8 change, LS Mean ± SE: −28.1 ± 2.56%
  HDL-C, week 8 change, LS Mean ± SE: 157 ± 6.54%
  LDL-C (Martin-Hopkins), week 8 change, LS Mean ± SE: −46.9 ± 3.65%
  Lp(a), week 8 change, LS Mean ± SE: −42.0 ± 4.33%
  Non-HDL-C, week 8 change, LS Mean ± SE: −39.9 ± 3.15%
  TG, week 8 change, LS Mean ± SE: 2.45 ± 5.27%
  VLDL-C, week 8 change, LS Mean ± SE: 3.08 ± 5.19%
  LDL-C (PUC), week 8 change, LS Mean ± SE (Table 9): −46.8 ± 3.23%
[1]; 10 mg once daily on top of high-intensity statin, listed as obicetrapib
  LDL-C (Martin-Hopkins), week 8 change, median (min, max): −49.2%
[1]; [8]
  LDL-C by PUC, % change from baseline, LS mean (Table 3): −44.15%
  TG and VLDL-C, comparison with placebo: not significantly different
  LDL-C (Friedewald formula) reduced from baseline by: 45.7%
  Apo B reduced by: 29.8%
  Lp(a) reduced by: 56.5%
  non-HDL-C reduced by: 44.4%
[1]; 10 mg once daily
  ApoB, % change from baseline, median: −29.75% and −29.8 (−58.4, 13.0) %
  HDL-C, % change from baseline, median: 165% and 165 (55.1,286) %
  LDL-C by Friedewald, % change from baseline (median): −45.65% and −45.7 (−78.0, 26.2) %
  LDL-C by PUC, % change from baseline (median): −50.8% and −50.75% and −50.8 (−76.9, 15.6) %
  Non-HDL-C, % change (median) from baseline: −44.4% and −44.4 (.70.2, 22.5) %
  LDL-C by Friedewald, % change from baseline, LS mean: −44.15% and −44.2 ± 3.46%
[1]; 10 mg once daily, listed as obicetrapib
  LDL-C by PUC, % change from baseline (median): −50.8%
[1]; 10 mg, individuals with baseline Apo B >100 mg/dL
  median Apo B reduction from baseline, post-hoc analysis: 39%

From patent US20230041138A1, “TREATMENT OF HIS HYPORESPONDERS” (NewAmsterdam Pharma B.V. (Dutch Registration No. 55971946), priority 2021, published 2023)
